Measured values published in patent publication US8093393B2, “Cationic ceramides, and analogs thereof, and their use for preventing or treating cancer” (MUSC Foundation for Research Development, priority 2004, dated 2012).
Where two headings read alike, the source gives them in different places.

Tests used:
[1] = test system: UM-SCC12 cells; experiment: MTT cell survival assay; type: cell-based, human; settings: UM-SCC12, 96 hr
Experimental: (§1) Cell lines and culture conditions. […] Cells were grown in DMEM containing 10% FCS and 1% penicillin/streptomycin at 37° C. in 5% CO2. The Wi-38 human lung fibroblasts were obtained from American Type Culture Collection, and were grown in DMEM as described above. Adult human epidermal keratinocytes were purchased from Cascade Biologics, and were maintained in EpiLife medium with growth supplements as described by the manufacturer.
(§2) MTT cell survival assay and isobologram studies. […] Triplicate wells were used for each treatment. The final concentration of DMSO (a solvent for conventional ceramides, GMZ and DOX) in the growth medium was less than 0.1% (v/v) which has no effect on cell growth and survival. Pyridinium ceramides were dissolved in sterile water or growth medium. In short, after cells (5-10×10^3/well) were seeded in 96-well-plates for 24 hr, they were treated with increasing concentrations of ceramide analogs for an additional 48 or 96 hr. For combination treatments, ceramides and chemotherapeutic agents (gemcitabine (GMZ) or doxorubicin (DOX)) were added to the growth medium simultaneously during treatment. Isobologram plots were then constructed using IC50 values of the two agents alone or in combination obtained from MTT assays. […]

[2] = biological target: T1, telomerase (Homo sapiens, UniProt O14746); experiment: Telomerase activity (TRAP), compound applied directly to cell extracts; type: biochemical; settings: 10, 20 and 100 μM
T1 construct: endogenous in cells; host or cells: UM-SCC-22A
Experimental: FIGS. 13A to 13B. Roles of CCPS on cell cycle profiles, and telomerase activity of UM-SCC-22A cells. (FIG. 13A) The effects of D-e-C6—, D-e-C12- and L-th-C12-pyridinium ceramides (at 1 μM for 48 hr) on cell cycle profiles of UM-SCC-22A cells were determined and compared to that of untreated cells using flow cytometry as described in Materials and Methods. (FIG. 13B) The effects of 0, 100, 250 and 500 nM L-t-C6-Pyr-Cer (LCL-124) (lanes 1-4, respectively) at 96 hr treatment in UM-SCC-22A cells on telomerase activity was assessed using TRAP assay. Lanes 5 and 6 contain positive (+) and negative (−) controls. To examine whether C6-Pyr-Cer inhibits telomerase activity directly, cell extracts (as shown in lane 1) were incubated in the presence of various concentrations of L-th-C6-Pyr-ceramide (LCL-124; 10, 20 and 100 μM) and telomerase activity was determined using TRAP assay (lanes 7-9, respectively). The presence of non-telomeric 36 bp internal standard (IS) in the TRAP assay serves as a control for polymerase chain reaction, and used for quantitation/normalization of the activity of telomerase. […]
Determination of telomerase activity. Telomerase activity in cell extracts was measured by the PCR-based telomere repeat amplification protocol (TRAP) using TRAPeze kit (Intergen, Gaithersburg, Md.) which includes a 36-bp internal control to allow quantification of activity. […]

[3] = test system: telomerase; experiment: Telomerase activity (TRAP) in treated cells; type: cell-based, human; settings: UM-SCC-22A
Experimental: FIGS. 13A to 13B. Roles of CCPS on cell cycle profiles, and telomerase activity of UM-SCC-22A cells. (FIG. 13A) The effects of D-e-C6—, D-e-C12- and L-th-C12-pyridinium ceramides (at 1 μM for 48 hr) on cell cycle profiles of UM-SCC-22A cells were determined and compared to that of untreated cells using flow cytometry as described in Materials and Methods. (FIG. 13B) The effects of 0, 100, 250 and 500 nM L-t-C6-Pyr-Cer (LCL-124) (lanes 1-4, respectively) at 96 hr treatment in UM-SCC-22A cells on telomerase activity was assessed using TRAP assay. Lanes 5 and 6 contain positive (+) and negative (−) controls. To examine whether C6-Pyr-Cer inhibits telomerase activity directly, cell extracts (as shown in lane 1) were incubated in the presence of various concentrations of L-th-C6-Pyr-ceramide (LCL-124; 10, 20 and 100 μM) and telomerase activity was determined using TRAP assay (lanes 7-9, respectively). The presence of non-telomeric 36 bp internal standard (IS) in the TRAP assay serves as a control for polymerase chain reaction, and used for quantitation/normalization of the activity of telomerase. The results shown are representative of at least two independent experiments.
FIGS. 14A to 14D. […] (FIG. 14A) The effects of various chemotherapeutic agents on cell growth in UM-SCC-22A cells were determined using MTT assays, and the IC50 concentrations of each agent were determined from cell growth plots as described. (FIG. 14B) The synergistic effects of DOX and L-th-C6-Pyr-Cer (LCL-124) on cell growth were assessed using isobologram studies as described in Materials and Methods. (FIG. 14C) The effects of 1 μM L-th-C6-Pyr-Cer (LCL-124) or cetyl-pyridinium-bromide, without ceramide conjugate (used as a control) on the growth inhibition potential of GMZ in UM-SCC-22A cells were determined using MTT assays. (FIG. 14D) The effects of GMZ (100 nM), L-th-C6-Pyr-Cer (LCL-124; 1 μM) or GMZ and L-th-C6-Pyr-Cer (LCL-124) (100 nM and 1 μM, respectively) on telomerase activity in UM-SCC-22A cells at 48 hr were examined using TRAP assay, and compared to that of untreated controls (lanes 2, 3, 4 and 1, respectively). The data shown are representative of at least two independent experiments performed in triplicate samples. Standard deviations in each sample were between 0.1-0.5.
Determination of telomerase activity. Telomerase activity in cell extracts was measured by the PCR-based telomere repeat amplification protocol (TRAP) using TRAPeze kit (Intergen, Gaithersburg, Md.) which includes a 36-bp internal control to allow quantification of activity. In short, the intensity of telomere-specific DNA bands, measured using Quantity One (BioRad) software, were normalized to the intensity of internal control bands for each sample on polyacrylamide gels for quantification.

[4] = test system: UM-SCC-22A cells; experiment: MTT cell survival assay and isobologram studies; type: cell-based, human
Experimental: Human head and neck cancer cell lines UM-SCC-1 (retromolar trigone/floor of the mouth), UM-SCC-12 (primary tumor of larynx), and UM-SCC-22A cells were obtained from clinical samples. Cells were grown in DMEM containing 10% FCS and 1% penicillin/streptomycin at 37° C. in 5% CO2.
MTT cell survival assay and isobologram studies. The concentrations of agents that inhibited cell growth by 50% (IC50) were determined from cell survival plots obtained by MTT. Triplicate wells were used for each treatment. The final concentration of DMSO (a solvent for conventional ceramides, GMZ and DOX) in the growth medium was less than 0.1% (v/v) which has no effect on cell growth and survival. Pyridinium ceramides were dissolved in sterile water or growth medium. In short, after cells (5-10×10^3/well) were seeded in 96-well-plates for 24 hr, they were treated with increasing concentrations of ceramide analogs for an additional 48 or 96 hr. For combination treatments, ceramides and chemotherapeutic agents (gemcitabine (GMZ) or doxorubicin (DOX)) were added to the growth medium simultaneously during treatment. Isobologram plots were then constructed using IC50 values of the two agents alone or in combination obtained from MTT assays. A straight line joining points on x- and y-axes represent the IC50 concentrations of two agents, and the points representing the IC50 concentrations of the combination of the two agents are represented as scatter plots on the same graphs. In general, the points that fall within the left of the straight line indicate synergism. The experiments were performed as triplicates in at least 3 independent experiments.
Human head and neck cancer cell lines UM-SCC-1 (retromolar trigone/floor of the mouth), UM-SCC-14A (SCC of anterior floor of the mouth), and UM-SCC-22A (SCC of hypopharynx) cells were obtained. Cells were grown in DMEM containing 10% FCS and 1% penicillin/streptomycin at 37° C. in 5% CO2.
MTT cell survival assay and isobologram studies. The concentrations of agents that inhibited cell growth by 50% (IC50) were determined from cell survival plots obtained by MTT assays. […] In general, the points that fall within the left of the straight line indicate synergism. The experiments were performed as triplicates in at least 3 independent experiments. Error bars represent standard deviations.

[5] = test system: UM-SCC-22A cells; experiment: Apoptotic cell death by annexin V staining; type: cell-based, human
Text: Thus, these ceramide analogs appear to exert minimal apoptotic activity on their own, with selective cell cycle arrest in these cells.

[6] = test system: Wi-38 human lung fibroblasts; experiment: MTT cell survival assay, non-cancerous cells; type: cell-based; settings: Wi-38 fibroblasts, DMEM; read-out: IC50, cell growth in DMEM
Experimental: as §1
(§3) MTT cell survival assay and isobologram studies. […] Triplicate wells were used for each treatment. The final concentration of DMSO (a solvent for conventional ceramides, GMZ and DOX) in the growth medium was less than 0.1% (v/v) which has no effect on cell growth and survival. Pyridinium ceramides were dissolved in sterile water or growth medium. In short, after cells (5-10×10^3/well) were seeded in 96-well-plates for 24 hr, they were treated with increasing concentrations of ceramide analogs for an additional 48 or 96 hr. For combination treatments, ceramides and chemotherapeutic agents (gemcitabine (GMZ) or doxorubicin (DOX)) were added to the growth medium simultaneously during treatment. Isobologram plots were then constructed using IC50 values of the two agents alone or in combination obtained from MTT assays. A straight line joining points on x- and y-axes represent the IC50 concentrations of two agents, and the points representing the IC50 concentrations of the combination of the two agents are represented as scatter plots on the same graphs.

[7] = test system: adult human epidermal keratinocytes (HEK); experiment: MTT cell survival assay, non-cancerous cells; type: cell-based
Experimental: as §1, §3

[8] = test system: UM-SCC-1 cells; experiment: MTT cell survival assay; type: cell-based, human; settings: UM-SCC-1, 96 hr; read-out: IC50, cell survival
Experimental: as §1, §2

[9] = Solubility of ceramides and ceramidoids in water
[10] = biological target: T2, dihydroceramide 4,5-desaturase (Homo sapiens, UniProt O15121); experiment: Conversion of dhCCPS analogs to CCPS analogs in MCF7 cells; type: cell-based; settings: MS
T2 construct: dihydroceramide 4,5-desaturase in MCF7 cells to generate the corresponding CCPS analogs; endogenous in cells; host or cells: MCF7
T2 sequence (O15121 1-323): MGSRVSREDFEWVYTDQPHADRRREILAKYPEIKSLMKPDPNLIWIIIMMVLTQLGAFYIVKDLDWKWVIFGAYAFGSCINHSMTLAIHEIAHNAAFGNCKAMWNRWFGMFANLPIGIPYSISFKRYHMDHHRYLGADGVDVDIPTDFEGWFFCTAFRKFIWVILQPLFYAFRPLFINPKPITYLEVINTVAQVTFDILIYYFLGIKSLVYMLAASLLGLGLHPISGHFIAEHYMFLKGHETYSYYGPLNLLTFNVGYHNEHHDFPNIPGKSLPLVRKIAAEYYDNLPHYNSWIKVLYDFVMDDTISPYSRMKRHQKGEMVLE
Text: Absolute levels (pmol) of dhCCPS and CCPS analogs was established by MS approach as shown in the Examples (see Section 6). Data are expressed as changes of particular dhCCPS and CCPS to the total level of dhCCPS+CCPS (100%).

[11] = test system: MCF7 breast carcinoma cells; experiment: Cell proliferation and viability, Trypan blue exclusion assay; type: cell-based; settings: 48 h treatment; read-out: IC50, inhibitory effect on MCF7 cell growth
Method in brief: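 Cells seeded overnight in 10% FCS, then exposed to LCL compounds at 0-20 μM in ethanol (below 0.1%) for 48 h. Viable cell numbers counted by Trypan blue exclusion under light microscope, expressed as percentage of untreated controls; duplicate samples, two or three independent experiments.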

[12] = test system: MCF7 cells; settings: 5 μM, 5 h
Experimental: FIGS. 4A-4C show the cellular levels of CCPS analogs. MCF 7 cells were treated with 5 μM concentration of CCPS analogs over the time and cellular level of the nonmetabolized CCPSs was measured by MS methodology as shown under Experimental. Results are expressed as % of concentration applied.
A parallel set of cells was used to determine cell proliferation and to prepare lipid extracts for MS analysis.
Briefly, for the indicated points, media was removed, cells were washed twice with PBS, scraped into cold PBS (2×1.0 ml), transferred to glass vials and centrifuged for 5 min at 800 rpm. Cell pellets corresponding to ˜1×10^6 cells, were fortified with the internal standards IS (C17 base D-erythro-sphingosine: 17Sph, C17 sphingosine-1-phosphate: 17Sph-1P, N-palmitoyl-D-erythro-C13 sphingosine: 13CC16-Cer and N-heptadecanoyl-D-erythro-C17shingosine: 17CC17-Cer) and extracted (2×2 ml) into a one-phase solvent system with ethyl acetate/iso-propanol/water (60/30/10 v/v). One ml of this extract was used for Pi determination after lipid re-extraction by the Bligh and Dyer method. Remaining lipid extract was evaporated, reconstituted in 100 μl of methanol, and samples were injected on the Surveyor/TSQ 7000 LC/MS system and gradient eluted from the BDS Hypersil C8, 150×3.2 mm, 3 μm particle size column, with 1.0 mM methanolic ammonium formate/2 mM aqueous ammonium formate mobile phase system. Peaks corresponding to the target analytes and IS were collected and processed using the Xcalibur software system.
Cellular level of CCPS analogs was established by MS methodology.

[13] = test system: L929 mouse fibroblast cells; experiment: TNFα-induced PGE2 release; type: cell-based
Text: Interleukin-1 is a major inducer of inflammation and TNF is an important regulator of the reaction. Both cytokines can activate ceramidase, and thus inhibiting the activity of ceramidase can result in an anti-inflammatory effect. This may involve the prevention of the formation of sphingosine and sphingosine phosphate which have pro-inflammatory effects. Also, inhibition of ceramidase may prevent the hyperproliferation of immune cells that are important for inflammation. […] The release of PGE2 is also shown to be inhibited by D-(N-myristolyamino)-1-phenyl-1-propanol), D-MAPP, which is an inhibitor of one of the ceramidase. This observation may be important for inhibiting inflammatory reactions that occur in conditions, such as but not limited to rheumatoid arthritis. Thus, it is possible to treat or prevent inflammation by regulating the level of cellular ceramide using the method of the invention. As discussed above, ceramide level can be increased by administering compounds of the present invention that can inhibit mitochondrial ceramidase.

T1 sequence (O14746 whole entry): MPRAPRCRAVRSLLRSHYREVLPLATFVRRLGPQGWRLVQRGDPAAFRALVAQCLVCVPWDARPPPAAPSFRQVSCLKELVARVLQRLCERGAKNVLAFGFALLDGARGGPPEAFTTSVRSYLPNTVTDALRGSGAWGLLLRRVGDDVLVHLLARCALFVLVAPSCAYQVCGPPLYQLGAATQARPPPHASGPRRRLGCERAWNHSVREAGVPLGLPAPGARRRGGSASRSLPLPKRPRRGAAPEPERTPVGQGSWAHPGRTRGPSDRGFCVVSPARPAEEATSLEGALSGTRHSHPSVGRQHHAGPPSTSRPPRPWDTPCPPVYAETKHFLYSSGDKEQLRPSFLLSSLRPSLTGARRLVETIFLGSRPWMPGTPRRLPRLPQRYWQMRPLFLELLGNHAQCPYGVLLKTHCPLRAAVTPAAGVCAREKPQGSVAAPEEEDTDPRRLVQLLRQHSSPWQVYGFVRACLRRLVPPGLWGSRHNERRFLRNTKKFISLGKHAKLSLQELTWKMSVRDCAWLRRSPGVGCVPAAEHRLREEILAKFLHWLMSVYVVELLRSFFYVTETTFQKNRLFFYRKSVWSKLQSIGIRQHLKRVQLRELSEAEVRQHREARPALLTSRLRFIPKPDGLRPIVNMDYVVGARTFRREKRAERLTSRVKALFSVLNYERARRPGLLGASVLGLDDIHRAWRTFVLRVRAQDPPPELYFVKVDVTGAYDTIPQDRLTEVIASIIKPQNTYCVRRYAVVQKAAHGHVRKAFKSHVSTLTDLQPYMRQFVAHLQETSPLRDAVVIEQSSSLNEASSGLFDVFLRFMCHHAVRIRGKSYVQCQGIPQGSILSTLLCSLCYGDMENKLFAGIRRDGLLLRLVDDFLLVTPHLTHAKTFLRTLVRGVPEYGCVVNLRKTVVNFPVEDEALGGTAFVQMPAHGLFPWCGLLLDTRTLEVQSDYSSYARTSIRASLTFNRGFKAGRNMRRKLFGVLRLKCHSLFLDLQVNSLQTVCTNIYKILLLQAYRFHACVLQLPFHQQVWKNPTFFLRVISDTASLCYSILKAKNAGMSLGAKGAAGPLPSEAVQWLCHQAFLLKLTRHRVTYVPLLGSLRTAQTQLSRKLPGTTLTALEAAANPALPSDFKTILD
T1 sequence (O60832 whole entry partner): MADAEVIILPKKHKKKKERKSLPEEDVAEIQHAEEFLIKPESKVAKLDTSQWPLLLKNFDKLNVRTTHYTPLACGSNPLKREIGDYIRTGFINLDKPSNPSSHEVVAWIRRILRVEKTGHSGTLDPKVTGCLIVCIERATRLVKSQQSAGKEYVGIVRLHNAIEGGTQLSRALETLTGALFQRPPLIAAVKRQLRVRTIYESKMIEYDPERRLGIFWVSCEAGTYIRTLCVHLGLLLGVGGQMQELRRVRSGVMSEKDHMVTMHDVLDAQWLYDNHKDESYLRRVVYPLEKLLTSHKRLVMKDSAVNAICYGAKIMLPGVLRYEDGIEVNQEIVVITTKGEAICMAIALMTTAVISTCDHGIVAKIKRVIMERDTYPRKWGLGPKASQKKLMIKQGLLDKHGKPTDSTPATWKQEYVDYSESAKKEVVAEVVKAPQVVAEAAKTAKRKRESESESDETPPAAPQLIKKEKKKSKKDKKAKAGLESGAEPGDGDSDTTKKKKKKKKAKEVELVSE
T1 sequence (Q9NPE3 whole entry partner): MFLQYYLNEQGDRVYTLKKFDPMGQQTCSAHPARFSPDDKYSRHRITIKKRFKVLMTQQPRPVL
T1 sequence (Q9NX24 whole entry partner): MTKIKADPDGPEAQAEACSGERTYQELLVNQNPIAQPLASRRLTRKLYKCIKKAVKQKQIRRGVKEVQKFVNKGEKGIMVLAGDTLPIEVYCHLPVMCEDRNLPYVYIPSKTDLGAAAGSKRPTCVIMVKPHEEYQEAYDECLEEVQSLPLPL
T1 sequence (Q9NY12 whole entry partner): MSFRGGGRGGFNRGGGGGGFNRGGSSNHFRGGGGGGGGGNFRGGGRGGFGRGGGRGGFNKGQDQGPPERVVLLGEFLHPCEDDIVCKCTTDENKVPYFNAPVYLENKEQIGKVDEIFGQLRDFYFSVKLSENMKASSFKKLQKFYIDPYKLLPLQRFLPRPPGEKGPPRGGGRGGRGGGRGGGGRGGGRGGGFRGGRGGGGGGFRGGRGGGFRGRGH
T1 sequence (Q9BUR4 whole entry partner): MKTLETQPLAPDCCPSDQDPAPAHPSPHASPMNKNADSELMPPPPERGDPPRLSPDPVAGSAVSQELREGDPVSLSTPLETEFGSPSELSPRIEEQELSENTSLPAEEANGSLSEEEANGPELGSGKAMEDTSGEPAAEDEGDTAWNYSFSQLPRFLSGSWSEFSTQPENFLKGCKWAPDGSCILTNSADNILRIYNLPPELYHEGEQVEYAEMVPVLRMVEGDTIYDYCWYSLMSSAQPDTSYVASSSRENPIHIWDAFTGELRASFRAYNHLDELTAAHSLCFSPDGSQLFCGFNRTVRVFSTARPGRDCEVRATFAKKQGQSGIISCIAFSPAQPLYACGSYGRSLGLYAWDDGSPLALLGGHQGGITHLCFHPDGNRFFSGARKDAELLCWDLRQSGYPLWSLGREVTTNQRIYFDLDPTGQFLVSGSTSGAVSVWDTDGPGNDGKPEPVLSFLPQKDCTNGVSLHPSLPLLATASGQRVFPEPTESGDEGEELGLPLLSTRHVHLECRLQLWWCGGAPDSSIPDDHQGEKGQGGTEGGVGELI

## CCCCCCCCCCCCCC=CC(O)C(CO)NC(=O)CCCCC[n+]1ccccc1 (stereo not shown) [C6-Pyr-Cer]
[1]
  IC50: 250 to 300 nM
[2]
  effect on telomerase activity when applied directly to the extracts: no significant effect on telomerase activity
[3]; 100 nM, 96 hr
  inhibition of telomerase activity: about 30%
[3]; 250 nM, 96 hr
  inhibition of telomerase activity: ~50%
[3]; 500 nM, 96 hr
  inhibition of telomerase activity: ~75%
[3]; 48 hr, C6-Pyr-Cer 1 μM, GMZ 100 nM
  inhibition of telomerase activity: 30%
[4]; UM-SCC-22A, 1 μM with various concentrations of GMZ, 48 hr
  effect on the growth inhibition by GMZ: enhanced the anti-proliferative effects of GMZ
[4]; UM-SCC-22A, 25, 50 and 100 nM with DOX, 96 hr
  interaction with DOX, isobologram: decreased growth synergistically
[4]; UM-SCC-22A, 96 hr
  fold more effective in inhibiting cell growth than conventional C6-ceramides: > 4 fold
  optimum concentration for synergistic interaction with DOX: 50 nM
[4]; UM-SCC-22A, 96 hr, DMEM, read-out: IC50, cell growth
  IC50: ~300 nM
[4]; UM-SCC-22A, EpiLife medium, 96 hr, read-out: IC50, cell growth in EpiLife medium
  IC50: > 2000 nM
[4]; in vitro
  fold more effective in squamous cell carcinoma cells than in non-cancerous fibroblasts or keratinocytes: > 4 fold
[5]
  apoptotic cell death, annexin V staining: did not show any detectable signal
[6]
  IC50: > 1000 nM
[7]; HEK, EpiLife medium, 96 hr, read-out: IC50, cell growth in EpiLife medium
  IC50: > 2000 nM
[7]; keratinocytes, DMEM, read-out: IC50, cell growth in DMEM
  IC50: > 1000 nM
[8]
  IC50: 250 to 300 nM

## CCCCCCCCCCCCCCC[C@@H](O)[C@H](CO)NC(=O)CCCCCCCCCCCCCCC[n+]1ccccc1.[Br-] [LCL345, D-erythro-2-N-[16′-(1″-Pyridinium)-hexadecanoyl]-4,5-dihydrosphingosine Bromide]
[9]; 22° C.
  Solubility at 22° C.: 300 µg/mL
  Solubility at 22° C. ([mM]): (0.42) mM
[9]; 37° C.
  Solubility at 37° C.: 1400 µg/mL
  Solubility at 37° C. ([mM]): (2.0) mM
[10]
  metabolism of dhCCPS to the corresponding CCPS analog: time dependent formation of C16-CCPS (LCL30)
[11]
  IC50: 2500 nM
[12]
  Cellular level, % of concentration applied: 4%

## CCCCCCCCCCCCCC(=O)NC(C)C(O)c1ccccc1 [D-MAPP]
[13]
  release of PGE2: inhibited

## CCCCCCCCCCCCCCC[C@@H](O)[C@H](CO)NC(=O)CCCCCCCCCCC[n+]1ccccc1.[Br-] [LCL249, D-erythro-2-N-[12′-(1″-Pyridinium)-dodecanoyl]-4,5-dihydrosphingosine Bromide]
[10]
  metabolism of dhCCPS to the corresponding CCPS analog: time dependent formation of C12-CCPS (LCL88)
[12]
  Cellular level, % of concentration applied: 7%
